# Reference: patent US20180250351A1 (priority 2015, published 2018)
# Where two headings read alike, the source gives them in different places.
# How the values were obtained:
# [1] = human, in vivo
# [2] = curcumin dose 100 mg/kg (NPs) or 250 mg/kg (others); cited from earlier work
# [3] = target: T1, UDP-glucose dehydrogenase (UDP-GDH) (Homo sapiens, UniProt O60701); assay: Spectrophotometric test of inhibition of UDP-glucose dehydrogenase; type: biochemical; conditions: for type of inhibition of UDP-GDH: in relation to enzyme/substrate and cofactor NAD+; for IC50: 37° C., 340 nm
# T1 sequence (O60701 1-494): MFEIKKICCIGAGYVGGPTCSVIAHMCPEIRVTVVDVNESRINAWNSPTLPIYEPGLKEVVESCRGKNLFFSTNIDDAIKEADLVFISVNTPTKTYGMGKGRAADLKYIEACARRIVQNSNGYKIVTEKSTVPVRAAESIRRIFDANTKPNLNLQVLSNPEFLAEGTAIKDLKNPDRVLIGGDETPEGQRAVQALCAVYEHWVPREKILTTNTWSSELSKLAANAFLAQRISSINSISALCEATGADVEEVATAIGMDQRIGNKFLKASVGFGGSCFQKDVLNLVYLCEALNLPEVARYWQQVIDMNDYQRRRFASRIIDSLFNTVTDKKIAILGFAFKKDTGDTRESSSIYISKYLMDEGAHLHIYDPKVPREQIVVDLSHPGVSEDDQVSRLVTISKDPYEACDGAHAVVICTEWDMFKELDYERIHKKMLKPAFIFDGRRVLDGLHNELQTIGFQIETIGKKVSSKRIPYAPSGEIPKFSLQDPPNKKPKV
# Experimental: The UDP-GDH enzyme catalyses the oxidation of the UDP-glucose using the NAD+ as the oxidant agent, according to the following formula: […]
# UDP-glucose+2NAD++H2O→UDP-glucuronic acid+2NADH+2H+
# For the spectrophotometric evaluation of the enzymatic activity the following reactive mix has been used:
# The test has been done at 37° C. and monitored at 340 nm for 20 minutes.
# The algae has thus been suspended in different concentrations (10-50-100 mg/ml) in distilled water on the one hand and in 100% ethanol on the other; then homogenized and afterwards centrifuged at 5000 rpm for 10 minutes. We have then checked through spectrophotometry the presence in the two extracts of the relevant components, verifying the presence of phycocyanins at 620 nm for the water extract and of carotenoids at 400 nm and chlorophyll at 664 nm for the ethanol extract.
# [4] = animals; cited from earlier work
# [5] = humans; absolute terms, curcumin alone at the non detectable level; cited from earlier work
molecule,measurement,setting,value
"COc1cc(/C=C/C(=O)CC(=O)/C=C/c2ccc(O)c(OC)c2)ccc1O [curcumin alone, curcumin]",time of absorption peak after ingestion,[1],approximately 15 min
same,time of peak after ingestion,[1],approximately 1 hour
same,AUC,[2],312 ng·h/mL
same,Cmax,[2],90.3 ng/mL
phycocyanin,type of inhibition of UDP-GDH,[3],mixed type
same,IC50,[3]; purified molecule,2400 nM
"O=C(/C=C/C=C/c1ccc2c(c1)OCO2)N1CCCCC1 [Piperine, piperine]",plasma concentration increase of curcumin,[4],154%
same,plasma concentration increase of curcumin,[5],2000%
phycocyanobilin,type of inhibition of UDP-GDH,[3],directly competitive
same,IC50,[3]; purified pigment,2.7 nM
